We go through 52 compounds from PubChem BioAssay AID1996.

The structures appear in SMILES notation. Values after ≈ are worked out from the molar mass of the structure shown. Where only a bound is given, the exact number is not on record here.

The conditions of this series: buffer; pH 7.4; 200.0 µM.
Take `CN(C)C(=O)C12CCC(C)(C(=O)C1Br)C2(C)C` (configuration not stated): the solubility (kinetic) (as a rule, the concentration staying in solution when a stock, usually in DMSO, is diluted into the medium) was greater than 45.3 µg/mL.
Then `O=C(Nc1ccc(Cl)c(NC(=O)c2cccs2)c1)c1ccco1`, with 37.4 µg/mL (≈ 108 µM); and `CC(C)(C)C(=O)OCc1nc(-c2ccc(Cl)cc2)cs1`, with less than 0.7 µg/mL; and `COc1cc(OC)nc(Oc2ccc(N)c(C)c2)n1`, with greater than 39.2 µg/mL.
In turn, `Cc1cc(C(=O)N2CCN(c3ccccc3O)CC2)c(C)o1` displayed a solubility (kinetic) greater than 45.1 µg/mL.
For `CC1CC(C)CN(C(=O)COC(=O)c2ccc(N3CCCC3=O)cc2)C1` (configuration not stated), the kinetic solubility is greater than 53.8 µg/mL.
Next, `Cc1cccc(C(=O)NC(C)c2ccc(-n3ccnc3)cc2)c1C` (configuration not stated): 43 µg/mL (≈ 135 µM).
In turn, `Cc1nnc(SCC(=O)Nc2ccccc2F)n(N)c1=O` had a solubility (kinetic) greater than 46.4 µg/mL.
Regarding `O=C(OCC(=O)N1CCCC1)c1c[nH]c2ccccc12`, the kinetic solubility was greater than 40.8 µg/mL.
`CCOC(=O)c1cnn(C)c1NC(=O)c1ccc(Cl)cc1Cl`: the kinetic solubility is greater than 51.3 µg/mL.
In turn, `C=CCOCC(O)Cn1c(N2CCCC2)nc2c1c(=O)[nH]c(=O)n2C` (configuration not stated) displayed a kinetic solubility greater than 52.4 µg/mL.
Compound `CC(=O)c1ccc(NC(=S)Nc2ccc3[nH]c(=O)[nH]c3c2)cc1` had a solubility (kinetic) of 5.6 µg/mL (≈ 17.2 µM).
With `CC1(C)CC(=O)C2=C(C1)Nc1ccccc1S2`, the kinetic solubility was found to be 3 µg/mL (≈ 12.2 µM).
`Nc1cc(C(F)(F)F)cc([N+](=O)[O-])c1N`: the kinetic solubility is greater than 33.2 µg/mL.
Regarding `CCn1c(CO)nc2c1c(=O)[nH]c(=O)n2Cc1ccccc1`, the solubility (kinetic) was greater than 45 µg/mL.
On to `Cc1nc(SCC(=O)O)c(C#N)c2c1CCCC2`, for which the solubility (kinetic) was greater than 39.3 µg/mL.
Then `O=C(C1CCCN(S(=O)(=O)c2ccccc2)C1)N1CCCCC1` (configuration not stated), with 50.4 µg/mL (≈ 150 µM); and `Cc1cccc(C(=O)N/N=C/c2ccoc2)c1`, with greater than 34.2 µg/mL; and `COc1cc(OC)c(C=O)c(OC(=O)N2CCOCC2)c1`, with greater than 44.3 µg/mL.
`Cc1ccc(NC(=O)Cn2cnc3cc([N+](=O)[O-])ccc3c2=O)cc1`: the solubility (kinetic) was 3.9 µg/mL (≈ 11.5 µM).
Compound `S=C(NCc1ccc2c(c1)OCO2)NCc1ccco1` yielded a solubility (kinetic) greater than 43.6 µg/mL.
`COc1ccccc1NC(=O)CSc1nc(SC)ns1` displayed a kinetic solubility of 32.8 µg/mL (≈ 100 µM).
Turning to `CC(NC(=O)CN1CCN(c2ccccc2F)CC1)c1ccccc1` (configuration not stated), the solubility (kinetic) was found to be 46.3 µg/mL (≈ 136 µM).
Next, `CC(N)C12CC3CC(CC(C3)C1)C2.Cl` (configuration not stated): greater than 32.4 µg/mL; `Cc1ccc(NC(=O)CCl)c(C)c1`: greater than 29.7 µg/mL; `CCc1noc(C)c1C(=O)N(CCOC)c1c(N)n(CC(C)C)c(=O)[nH]c1=O`: 55.6 µg/mL (≈ 141 µM).
`O=C(COC(=O)CCc1ccccc1)NCc1ccccc1` came in with a kinetic solubility greater than 44.6 µg/mL.
Next, `N#Cc1ccc(C(=O)NCCCSc2ccccc2)cc1`: 6.4 µg/mL (≈ 21.6 µM); `O=C1CN(C(=O)COC(=O)CCc2ccccc2O)c2ccccc2N1`: greater than 53.2 µg/mL; `CSc1ccccc1C(=O)NC(C)c1ccc(-n2ccnc2)cc1` (configuration not stated): greater than 50.6 µg/mL.
As for `COc1ccc(CCNC(=O)CCc2ccsc2)cc1OC`, the solubility (kinetic) is greater than 47.9 µg/mL.
Then `O=C(O)c1cc(Oc2ccc(C(F)(F)F)cc2Cl)ccc1[N+](=O)[O-]`, with greater than 54.2 µg/mL; and `Cn1c(O)c(C=NC2CCN(Cc3ccccc3)CC2)c(=O)[nH]c1=O`, with greater than 51.4 µg/mL; and `Cc1cc(=O)oc2cc(OCC(=O)N3CCCC3)ccc12`, with greater than 43.1 µg/mL.
Compound `CN(C)CCCNC(=O)c1cc(C(=O)Cc2ccccc2)c[nH]1` yielded a solubility (kinetic) greater than 47 µg/mL.
`COC(=O)c1cccnc1NC(=S)NC1CCCCC1`: the kinetic solubility is 0.9 µg/mL (≈ 3.07 µM).
In turn, `Cc1cc(C(=O)N2CCOCC2)ccc1[N+](=O)[O-]` had a solubility (kinetic) greater than 37.5 µg/mL.
Compound `COC(=O)Cn1cc(C(=O)c2ccccc2F)c2ccccc21` returned a kinetic solubility of 32.4 µg/mL (≈ 104 µM).
In turn, `O=c1[nH]c2cccc(F)c2n2cccc12` displayed a solubility (kinetic) of 3.2 µg/mL (≈ 15.8 µM).
As for `Cc1cccc(C)c1OCC(=O)Nc1ccccc1N1CCCCC1`, the kinetic solubility is less than 0.4 µg/mL.
On to `CSc1c(C#N)c(N)nc2sc(C(=O)c3ccccc3)c(N)c12`, for which the kinetic solubility stood at 3.1 µg/mL (≈ 9.11 µM).
Compound `O=C(COC(=O)c1cccnc1Cl)NCc1ccc(F)cc1` returned a solubility (kinetic) greater than 48.4 µg/mL.
`CN(C)c1cc[n+](CC(=O)Nc2ccccc2C(F)(F)F)cc1.[Cl-]` had a solubility (kinetic) greater than 54 µg/mL.
`C1=CCN(Cc2ccccc2)C1` showed a kinetic solubility of 4.1 µg/mL (≈ 25.7 µM).
The compound `COc1ccc(C)cc1NC(=O)C1CCN(S(C)(=O)=O)CC1` showed a kinetic solubility greater than 49 µg/mL.
As for `COC(=O)/C=C/COc1ccccc1[N+](=O)[O-]`, the kinetic solubility amounted to 17.9 µg/mL (≈ 75.5 µM).
Turning to `CC(C)(C)c1csc(NC(=O)CS(=O)(=O)c2ccccc2)n1`, the kinetic solubility is 50.6 µg/mL (≈ 150 µM).
`C/C(=N/NC(=O)CN1CCN(Cc2ccccc2Cl)CC1)c1cccnc1` returned a solubility (kinetic) greater than 57.9 µg/mL.
For `CN(Cc1ccccc1)C(=O)COC(=O)/C=C/c1ccc2c(c1)OCO2`, the solubility (kinetic) was 22.3 µg/mL (≈ 63.1 µM).
Compound `COc1ccccc1-c1nc(=S)c(C(C)=O)c(C)[nH]1` came in with a kinetic solubility greater than 41.2 µg/mL.
Next, `CC1CCCN(CC(=O)c2ccc(Cl)c(Cl)c2)C1` (configuration not stated): 26 µg/mL (≈ 90.8 µM); `ClC1(Cl)CC1Cn1cnc2ccccc21` (configuration not stated): 33.4 µg/mL (≈ 139 µM).
